Measurements as given in patent publication EP1276895B1, “METHOD FOR THE IDENTIFICATION OF ACTIVE SITE PROTEASE INACTIVATORS” (THE UNIVERSITY OF GEORGIA RESEARCH FOUNDATION, INC., priority 2000, dated 2001).
Several values for one entry are separate records, joined by “and”; a condition that tells them apart may be missing. Equal values may be shown once. Residues, ends and D or L forms follow the SMILES beside them. *: point of attachment. AFC = O=c1cc(C(F)(F)F)c2ccc(N*)cc2o1; Cbz = O=C(OCc1ccccc1)*; CH2F = FC*

Experiments:
Cathepsin H (cysteine) = biological target: T1, Cathepsin H (cysteine) (Homo sapiens, UniProt P09668); experiment: Differential cleavage (selectivity) test, Cathepsin H; type: biochemical; details: 0.15 M PBS pH 6.8, 10 mM L-cysteine, substrate L-R-AFC; for inhibition at 0.0003 µM: inhibitor 3 X 10^-10 M
T1 sequence (P09668 98-335): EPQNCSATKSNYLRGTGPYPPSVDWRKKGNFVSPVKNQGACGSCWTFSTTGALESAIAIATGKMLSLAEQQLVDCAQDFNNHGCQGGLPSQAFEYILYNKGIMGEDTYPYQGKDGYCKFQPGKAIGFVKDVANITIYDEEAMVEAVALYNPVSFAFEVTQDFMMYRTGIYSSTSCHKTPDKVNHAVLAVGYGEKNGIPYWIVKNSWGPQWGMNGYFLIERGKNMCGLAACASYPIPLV
Protocol: In order to perform the assay, the vehicle (for Step VI) or inhibitor (for Step IX) were incubated with the appropriate substrate in the correct assay buffer and allowed to equilibrate. Subsequently, the protease was added, and the assay was allowed to incubate for an appropriate time. The concentrations used in this experiment were as follows: Vehicle was set up at 4 X 10^-5 M in final assay buffer; Inhibitor was set up at 3 X 10^-10 M in the final assay buffer. Accordingly, the dosages employed should be the minimal amount of vehicle or inhibitor necessary to induce inhibition. […] Substrates were set up based upon the preferred substrate for cleavage of the particular enzyme.
Positive controls were set up similarly as described for test controls, except that solvent was added in substitution for the inhibitor or vehicle (in a volume equal to the volume of inhibitor or vehicle addition). All of the inhibitors and vehicles could be dissolved in dimethylsulfoxide (DMSO), and therefore, this was the solvent of choice. Negative controls were set up by adding the inhibitor or vehicle and the preferred substrates in a tube without the protease. All potential non-proteolytic liberation of AFC was therefore controlled for in this tube (a feature which also insured stability of the AFC substrates, since these substrates will freely liberate AFC when unstable).
All controls were set up in triplicate, and experiments were repeated a minimum of five times.
Percent inhibition was calculated as: % Inhibition = ((AFC positive for ʺSIʺ-AFC negative for ʺSIʺ)-(AFC test-AFC negative for ʺSIʺ))/(AFC positive for ʺSIʺ-AFC negative for ʺSIʺ) × 100 [formula] In this preliminary test, we employed the following human-derived enzymes (with indicated mechanistic class): Cathepsin B (cysteine), Cathepsin L (cysteine), Cathepsin H (cysteine), Cathepsin D (aspartic) Trypsin (serine), the purified Taenia solium cysteine protease, and the Taenia solium crude mix. Cathepsin B was prepared in an assay buffer of 10 mM L-cysteine in 0.4 M Citrate buffer, pH 6.1, using Z-ARR-AFC as the cleavage substrate. Cathepsin L was prepared in an assay buffer of 10 mM L-cysteine in 0.4 M Citrate buffer, pH 5.5, using Z-FR-AFC as the cleavage substrate. Cathepsin H was prepared in an assay buffer of 10 mM L-cysteine in 0.15 M PBS buffer, pH 6.8, using L-R-AFC as the cleavage substrate. Cathepsin D was prepared in an assay buffer of 0.15 M PBS, pH 7.1, using Z-RGFFP-AFC as the cleavage substrate. Trypsin was prepared in an assay buffer of 0.15 M PBS, pH 8.0, supplemented with 100 mM CaCl2 and with Z-R-AFC as the cleavage substrate. Enzyme was incubated so that it was at least 50 times less than the concentration of substrate in order to insure saturating conditions.

[1] = system: purified Taenia solium cysteine protease; experiment: Competitor assay of low Vmax substrates (vehicles) against high Vmax substrate cocktails (Step III), purified protease; type: biochemical; details: for inhibition in the presence of the 1.4% cocktail: 1.4% cocktail = Z-FR-AFC 1X10^-6M; for inhibition with the final cocktail (7.4%): 7.4% cocktail = Z-FR-AFC + Z-FAR-AFC + Z-AAK-AFC + AP-AFC + Z-VLR-AFC, 1X10^-6 M each, vehicle 8X10^-6 M; for Ki of vehicle: Dixon plot, preliminary, values not reported
Protocol: (We employed "Vmax" here although Kcat could also be used). Due to the lower number of substrates, a percentage was not chosen for the "BOTTOM %" " substrates. Alternately, all substrates which were not cleaved as determined by a value of 10 uM/hr or less, were chosen to be tested in this step for competitive ability. From this point forth, the term "vehicle" will represent low Vmax substrates that were capable of inhibiting cleavage of the percent cocktails. In this instance, we tested for "vehicles" which inhibited cleavage of the TOP 1.4% cocktail (they were delivered into the active site). Based upon our results from Step II, the top 1.4% cocktail was composed of Z-Phe-Arg-AFC, the highest cleaved substrate.
The experiment began with a competitor test between the noncleaved low Vmax substrates and the highest Vmax substrate, Z-Phe-Arg-AFC. Concentrations were varied between the low Vmax substrate and Z-Phe-Arg-AFC, as described above under "refinement of assay" until a relative inhibition profile was obtained.
The mixture was allowed to equilibrate for a period of 30 minutes. Finally, active purified enzyme was added to the tubes at a concentration which was always 50 times less than the concentration of the high and low Vmax substrates, in order to insure saturation conditions. This concentration varied from purification to purification and the amount added depended upon the yield and specific activity of the purified protease.
Positive controls were set up similarly as described for test controls, except that solvent was added in substitution for the low Vmax substrate (in a volume equal to the low Vmax volume addition). All of the substrates could be dissolved in dimethylsulfoxide (DMSO), and therefore, this was the solvent of choice. Negative controls were set up by adding the low Vmax and the high Vmax substrate in a tube without the protease. All potential non-proteolytic induced liberation of AFC was therefore controlled for in this tube (a feature which also insured stability of the AFC substrates, since these substrates will freely liberate AFC when unstable). A tube set will be established for this negative control.
All controls were set up in triplicate, and experiments repeated a minimum of five times. The assays were incubated at 37°C, for 18 hours overnight.
Percent inhibition was calculated as: %Inhibition =; ((AFC positive for"Y"-AFC negative for"Y")-(AFC test-AFC negative for"Y")X100)/(AFC positive for "Y"-AFC negative for "Y") [formula]
A 2.9% cocktail of the high Vmax substrates was made. This was composed of Z-FR-AFC and the second most cleaved substrate, Z-FAR-AFC. The vehicles promoted from the initial screenings above were again tested for competitive inhibition ability with the new cocktails. Their concentrations were set identically to those which were "fixed" in the previous protocols. In other words, 8X10^-6M of the vehicle was added to the culture tube with 1X10^-6 M of Z-FR-AFC and 1X10^-6 M of Z-FAR-AFC. Active protease was added last at a concentration that was 50 times less than the concentration of the high Vmax substrate (to ensure saturating conditions).
In similar experimental fashion, a 4.4%, 5.9%, and 7.4% cocktail were tested with each of the promising vehicles. Each percentage point represented an increase by one substrate. Each of the individual components in the cocktail were added at 1X10^-6 M each, to 8X10^-6 M of the vehicle. The composition of the cocktails was as follows: 4.4% cocktail: Z-FR-AFC, Z-FAR-AFC, and Z-AAK-AFC (third highest cleaved substrate); 5.9% cocktail: Z-FR-AFC, Z-FAR-AFC, Z-AAK-AFC, and AP-AFC (fourth highest cleaved substrate); 7.4% cocktail: […], Z-FAR-AFC, Z-AAK-AFC, AP-AFC, and Z-VLR-AFC. We stopped at this number of substrates in the cocktail, since confidence was obtained that inhibitory potential of vehicles could be "diluted out."
Finally, a manageable set of candidate vehicles was determined. […]

[2] = vehicle 8X10^-6M, purified protease

## CC(C)C[C@H](NC(=O)OCc1ccccc1)C(=O)N[C@@H](CC(C)C)C(=O)N[C@@H](CC(C)C)C(=O)Nc1ccc2c(C(F)(F)F)cc(=O)oc2c1 [Z-LLL-AFC, Z-Leu-Leu-Leu-AFC] (Cbz-Leu-Leu-Leu-{AFC})
Cathepsin H (cysteine); vehicle 4 X 10^-5 M
  inhibition at 40 µM: 0%
[1]; [2]
  inhibition in the presence of the 1.4% cocktail: greater than 20%
[1]; purified protease
  inhibition with the final cocktail (7.4%): ≥ 50%
[1]
  Ki of vehicle: lowest Ki values

## CC(C)C[C@H](NC(=O)[C@H](CC(C)C)NC(=O)[C@H](CC(C)C)NC(=O)OCc1ccccc1)C(=O)CF [Z-LLL-FMK, Z-Leu-Leu-Leu-fluoromethylketone] (Cbz-Leu-Leu-Leu-CH2F)
Cathepsin H (cysteine)
  inhibition at 0.0003 µM: 0%

## CC(C)C[C@H](NC(=O)OCc1ccccc1)C(=O)N[C@@H](CC(C)C)C(=O)N[C@@H](Cc1ccc(O)cc1)C(=O)Nc1ccc2c(C(F)(F)F)cc(=O)oc2c1 [Z-LLY-AFC, Z-Leu-Leu-Tyr-AFC] (Cbz-Leu-Leu-Tyr-{AFC})
Cathepsin H (cysteine); vehicle 4 X 10^-5 M
  inhibition at 40 µM: 0%
[1]; [2]
  inhibition in the presence of the 1.4% cocktail: greater than 20%
[1]; purified protease
  inhibition with the final cocktail (7.4%): ≥ 50%
[1]
  Ki of vehicle: lowest Ki values

## CC(C)C[C@H](NC(=O)OCc1ccccc1)C(=O)N[C@@H](CC(C)C)C(=O)N[C@@H](Cc1ccc(O)cc1)C(=O)CF [Z-LLY-FMK, Z-Leu-Leu-Tyr-FMK] (Cbz-Leu-Leu-Tyr-CH2F)
Cathepsin H (cysteine)
  inhibition at 0.0003 µM: 0%

## Mu-Leu-Tyr-AFC [Mu-LY-AFC]
Cathepsin H (cysteine); vehicle 4 X 10^-5 M, 40 µM
  % Inhibition: 0%
[1]; purified protease
  inhibition with the final cocktail (7.4%): ≥ 50%
[1]
  Ki of vehicle: lowest Ki values
[1]; purified protease, V = P * M, P = inhibition with first (1.4%) cocktail, M = inhibition with last (7.4%) cocktail, vehicle 8X10^-6M, each cocktail substrate 1X10^-6 M
  V Value: 0.452 and 0.450
